# Patent EP3529257B1, “[…] METHODS OF USE THEREOF” (Sage Therapeutics, Inc., priority 2016, dated 2018)
# Key:
# [1] = molecular target: T1, GlunN1/GluN2A glutamate receptors (Homo sapiens, UniProt Q05586+Q12879); test: Whole-cell patch clamp of mammalian cells (Ionworks Barracuda), positive allosteric modulation (PAM) of NMDA receptor, 2A; assay type: cell-based; conditions: for Avg Emax 2A (%) / EC50: HEK293 cells; for Avg Emax 2A (%) / Emax: % activation of current elicited with EC20 L-glutamate and 30 µM glycine; for EC50: co-application with EC20 L-glutamate and 30 µM glycine, 8-point concentration-response; for Emax: HEK293, HEK293 cells
# T1 construct: expressed in transfected cells
# T1 sequence (Q12879 23-1464, other chains not shown): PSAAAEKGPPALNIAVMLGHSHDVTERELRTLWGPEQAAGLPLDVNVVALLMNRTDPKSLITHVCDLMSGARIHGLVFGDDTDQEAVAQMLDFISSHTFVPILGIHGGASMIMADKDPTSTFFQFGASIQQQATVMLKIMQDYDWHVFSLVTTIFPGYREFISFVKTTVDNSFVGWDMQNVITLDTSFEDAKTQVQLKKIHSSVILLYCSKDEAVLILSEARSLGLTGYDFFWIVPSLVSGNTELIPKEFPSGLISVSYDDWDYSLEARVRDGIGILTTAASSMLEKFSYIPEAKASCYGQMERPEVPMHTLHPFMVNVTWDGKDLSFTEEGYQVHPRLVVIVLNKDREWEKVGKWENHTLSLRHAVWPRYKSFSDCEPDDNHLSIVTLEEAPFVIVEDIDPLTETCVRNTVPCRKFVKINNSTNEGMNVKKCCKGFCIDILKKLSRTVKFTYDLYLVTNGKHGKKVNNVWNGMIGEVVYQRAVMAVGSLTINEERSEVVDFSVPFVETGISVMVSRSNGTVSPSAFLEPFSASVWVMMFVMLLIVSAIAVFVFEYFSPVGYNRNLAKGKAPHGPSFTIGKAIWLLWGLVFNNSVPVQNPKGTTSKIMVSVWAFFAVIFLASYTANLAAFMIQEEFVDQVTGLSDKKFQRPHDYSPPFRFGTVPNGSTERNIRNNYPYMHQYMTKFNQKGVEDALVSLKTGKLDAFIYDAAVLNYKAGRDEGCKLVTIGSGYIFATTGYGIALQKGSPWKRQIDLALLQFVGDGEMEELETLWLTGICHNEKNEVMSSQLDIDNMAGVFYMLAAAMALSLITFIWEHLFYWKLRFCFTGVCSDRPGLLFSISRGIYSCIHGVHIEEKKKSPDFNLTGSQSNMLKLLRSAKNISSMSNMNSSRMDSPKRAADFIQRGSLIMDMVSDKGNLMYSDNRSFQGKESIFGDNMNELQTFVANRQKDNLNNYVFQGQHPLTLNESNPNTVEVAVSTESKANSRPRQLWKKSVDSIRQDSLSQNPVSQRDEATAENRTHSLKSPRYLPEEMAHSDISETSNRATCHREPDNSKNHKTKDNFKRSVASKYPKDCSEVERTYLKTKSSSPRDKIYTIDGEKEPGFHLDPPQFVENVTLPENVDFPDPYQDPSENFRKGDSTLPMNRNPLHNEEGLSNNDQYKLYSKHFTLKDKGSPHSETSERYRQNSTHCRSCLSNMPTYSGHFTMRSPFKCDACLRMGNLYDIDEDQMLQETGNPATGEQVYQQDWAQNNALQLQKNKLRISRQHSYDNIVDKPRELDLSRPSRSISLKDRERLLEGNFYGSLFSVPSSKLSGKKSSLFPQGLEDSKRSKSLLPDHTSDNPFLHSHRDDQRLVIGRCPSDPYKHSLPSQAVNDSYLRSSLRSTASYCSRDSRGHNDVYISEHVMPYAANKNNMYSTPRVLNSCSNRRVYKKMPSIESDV
# Procedure: (§1) The measurements were perfomed using Ion Works Barracuda platform following this procedure: • Electrophysiological Procedures: • a) Intracellular solution (mM): 50 mM CsCl, 90 mM CsF, 2 mM MgCl2, 5 mM EGTA, 10 mM HEPES. Adjust to pH 7.2 with CsOH. • b) Extracellular solution, HB-PS (composition in mM): NaCl, 137; KCl, 1.0; CaCl2, 5; HEPES, 10; Glucose, 10; pH adjusted to 7.4 with NaOH (refrigerated until use). • c) Holding potential: -70 mV, potential during agonist/PAM application: -40 mV. • Recording procedure: • a) Extracellular buffer will be loaded into the PPC plate wells (11 µL per well). Cell suspension will be pipetted into the wells (9 µL per well) of the PPC planar electrode. • b) Whole-cell recording configuration will be established via patch perforation with membrane currents recorded by on-board patch clamp amplifiers. • c) Two recordings (scans) will be performed. First, during pre-application of test article alone (duration of pre-application - 5 min) and second, during test articles and agonist (EC20 L-glutamate and 30 µM glycine) co-application to detect positive modulatory effects of the test article.
# (§2) Test Article Administration: The first pre-application will consist of the addition of 20 µL of 2X concentrated test article solution and, second, of 20 µL of 1X concentrated test article and agonist at 10 µL/s (2 second total application time).
# (§3) PAM concentration-response data will be fitted to an equation of the form: % Activation = % L−glutamate EC20 + {(%MAX−%L−glutamateEC20)/[1+(([Test]/; EC50))^N]}, [formula] where [Test] will be the concentration of PAM (test article), EC50 will be the concentration of PAM producing half-maximal activation, N will be the Hill coefficient, % L-glutamate EC20 will be the percentage of the current Elicited with L-glutamate EC20, % MAX is the percentage of the current activated with the highest dose of PAM co-admitted with L-glutamate EC20 and % Activation will be the percentage of the current elicited with L-glutamate EC10-30 at each PAM concentration.
# (§4) The maximal amplitude of the evoked currents are measured and defined as Peak Current Amplitude (PCA).
# [2] = molecular target: T2, GluN2B glutamate receptors (Homo sapiens, UniProt Q05586+Q13224); test: Whole-cell patch clamp of mammalian cells (Ionworks Barracuda), positive allosteric modulation (PAM) of NMDA receptor, 2B; assay type: cell-based; conditions: for Avg Emax 2B (%) / Emax: % activation of current elicited with EC20 L-glutamate and 30 µM glycine; for EC50: co-application with EC20 L-glutamate and 30 µM glycine, 8-point concentration-response
# T2 construct: expressed in transfected cells; host or cells: mammalian cells (line not described for GluN2B)
# T2 sequence (Q13224 27-1484, other chains not shown): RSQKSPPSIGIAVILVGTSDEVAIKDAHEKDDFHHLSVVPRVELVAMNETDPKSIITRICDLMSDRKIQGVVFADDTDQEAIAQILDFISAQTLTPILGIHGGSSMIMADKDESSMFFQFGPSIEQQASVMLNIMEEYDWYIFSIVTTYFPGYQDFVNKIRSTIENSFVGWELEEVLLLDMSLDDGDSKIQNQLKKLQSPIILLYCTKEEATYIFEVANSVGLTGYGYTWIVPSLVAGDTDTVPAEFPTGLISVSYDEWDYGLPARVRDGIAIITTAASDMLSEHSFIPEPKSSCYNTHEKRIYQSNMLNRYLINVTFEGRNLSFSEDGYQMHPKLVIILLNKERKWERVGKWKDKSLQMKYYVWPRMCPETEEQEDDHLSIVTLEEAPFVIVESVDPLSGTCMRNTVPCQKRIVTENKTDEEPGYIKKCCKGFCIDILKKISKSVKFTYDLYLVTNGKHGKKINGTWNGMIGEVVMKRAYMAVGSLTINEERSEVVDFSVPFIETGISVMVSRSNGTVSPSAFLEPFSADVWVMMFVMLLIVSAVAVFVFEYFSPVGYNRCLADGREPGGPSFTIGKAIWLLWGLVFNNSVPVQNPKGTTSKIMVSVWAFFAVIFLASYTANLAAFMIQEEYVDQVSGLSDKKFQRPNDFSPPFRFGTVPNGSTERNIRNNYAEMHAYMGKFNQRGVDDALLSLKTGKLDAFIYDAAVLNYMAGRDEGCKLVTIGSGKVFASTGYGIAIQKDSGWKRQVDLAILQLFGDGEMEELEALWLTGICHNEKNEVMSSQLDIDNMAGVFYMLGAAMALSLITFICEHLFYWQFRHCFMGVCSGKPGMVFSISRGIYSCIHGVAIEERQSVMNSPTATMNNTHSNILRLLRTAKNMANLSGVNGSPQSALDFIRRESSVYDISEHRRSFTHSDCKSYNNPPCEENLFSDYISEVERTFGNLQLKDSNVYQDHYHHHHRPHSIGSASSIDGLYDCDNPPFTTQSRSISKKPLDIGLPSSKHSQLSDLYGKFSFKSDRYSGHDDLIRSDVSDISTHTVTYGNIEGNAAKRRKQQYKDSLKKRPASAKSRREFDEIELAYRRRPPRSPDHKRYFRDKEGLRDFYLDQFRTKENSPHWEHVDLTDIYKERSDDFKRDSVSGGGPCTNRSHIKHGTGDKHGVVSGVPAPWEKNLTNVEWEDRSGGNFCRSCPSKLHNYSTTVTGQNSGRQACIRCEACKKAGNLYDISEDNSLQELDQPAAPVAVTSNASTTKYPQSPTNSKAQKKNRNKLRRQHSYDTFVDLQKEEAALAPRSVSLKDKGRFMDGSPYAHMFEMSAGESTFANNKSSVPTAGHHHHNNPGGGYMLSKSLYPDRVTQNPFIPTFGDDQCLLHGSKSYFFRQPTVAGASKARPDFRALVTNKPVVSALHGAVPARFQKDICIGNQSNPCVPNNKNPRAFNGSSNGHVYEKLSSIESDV
# Procedure: as §1, §2, §3, §4
Structure (SMILES),Avg Emax 2A (%) [1] [%],EC50 [1] [nM],Avg Emax 2B (%) [2] [%],EC50 [2] [nM],Emax [1] [%],Emax [2] [%]
CC(C)[C@H](O)CC[C@@H](C)[C@H]1CC[C@H]2[C@@H]3CC[C@H]4C[C@@](C)(O)CC[C@@H]4[C@H]3CC[C@]12C [Compound 1B75],278.8,165,233.1,183,–,–
C[C@H](CCC[C@@H](O)C(C)(C)C)[C@H]1CC[C@H]2[C@@H]3CC[C@H]4C[C@](O)(C(F)(F)F)CC[C@]4(C)[C@H]3CC[C@]12C [Compound 12055],113.8,506,184.7,1130,–,–
C[C@H](CCC1(O)CCOC1)[C@H]1CC[C@H]2[C@@H]3CC=C4C[C@](O)(C(F)(F)F)CC[C@]4(C)[C@H]3CC[C@]12C (stereo partly shown) [Compound 10],–,–,–,–,632,362
CC[C@H](O)CCC[C@@H](C)[C@H]1CC[C@H]2[C@@H]3CC=C4C[C@](O)(CC)CC[C@@H]4[C@H]3CC[C@]12C [Compound 10949],97.4,66.4,147.4,138,–,–
C[C@H](CCCC1(O)CC1)[C@H]1CC[C@H]2[C@@H]3CC[C@H]4C[C@](O)(C(F)(F)F)CC[C@]4(C)[C@H]3CC[C@]12C [Compound 4115],–,–,–,–,186,195
CC[C@]1(O)CC[C@H]2C(=CC[C@@H]3[C@@H]2CC[C@]2(C)[C@@H]([C@H](C)CCC[C@@H](O)C(C)C)CC[C@@H]32)C1 [Compound 10114],146.3,321,179.1,506,–,–
C[C@H](CCC[C@H](O)C(F)(F)F)[C@H]1CC[C@H]2[C@@H]3CC[C@H]4C[C@](O)(C(F)(F)F)CC[C@]4(C)[C@H]3CC[C@]12C [Compound 11934],113.4,729,70.0,470,–,–
CC[C@]1(O)CC[C@H]2C(=CC[C@@H]3[C@@H]2CC[C@]2(C)[C@@H]([C@H](C)CC[C@]4(O)CCOC4)CC[C@@H]32)C1 [Compound 8603],–,–,–,–,294,271
C[C@H](CCC1(O)CCC(C)(C)CC1)[C@H]1CC[C@H]2[C@@H]3CC[C@@H]4C[C@](O)(C(F)(F)F)CC[C@]4(C)[C@H]3C(=O)C[C@]12C [Compound 5294],32.4,> 10000,13.9,> 10000,–,–
CC(C)[C@H](O)CC[C@@H](C)[C@H]1CC[C@H]2[C@@H]3CC=C4C[C@](O)(C(F)(F)F)CC[C@]4(C)[C@H]3CC[C@]12C [Compound 1-B],–,–,–,–,262,285
"CCC1(O)CCC2C(=CCC3C2CCC2(C)C(C(C)CCC4(O)CCOC4)CCC32)C1 (single isomer, unassigned) [Compound 8602]",–,–,–,–,272,262
C[C@H](CCC1(O)CCC(OC(F)F)CC1)[C@H]1CC[C@H]2[C@@H]3CC[C@H]4C[C@](O)(C(F)(F)F)CC[C@]4(C)[C@H]3CC[C@]12C (stereo partly shown) [Compound 5131],52.9,33.6,39.0,> 10000,–,–
C[C@H](CC[C@@H](O)C(F)(F)F)[C@H]1CC[C@H]2[C@@H]3CC=C4C[C@](O)(C(F)(F)F)CC[C@]4(C)[C@H]3CC[C@]12C [Compound 3149],–,–,–,–,292,472
C[C@H](O)CCC[C@@H](C)[C@H]1CC[C@H]2[C@@H]3CC[C@H]4C[C@](O)(C(F)(F)F)CC[C@]4(C)[C@H]3CC[C@]12C [Compound 2113],402.7,380,285.0,413,–,–
C[C@H](CCC1(O)CCC(F)(F)CC1)[C@H]1CC[C@H]2[C@@H]3CC[C@H]4C[C@](O)(C(F)(F)F)CC[C@]4(C)[C@H]3CC[C@]12C [Compound 8],–,–,–,–,402,322
C[C@H](CC[C@H](O)C(C)(C)C)[C@H]1CC[C@H]2[C@@H]3CC[C@H]4C[C@](O)(C(F)(F)F)CC[C@]4(C)[C@H]3CC[C@]12C [Compound 2184],–,–,–,–,234,258
CCC(O)CCC[C@@H](C)[C@H]1CC[C@H]2[C@@H]3CC=C4C[C@](O)(CC)CC[C@@H]4[C@H]3CC[C@]12C (stereo partly shown) [Compound 10673],215.5,254,213.5,180,–,–

Structure (SMILES),Avg Emax 2A (%) [1] [%],EC50 [1] [nM],Avg Emax 2B (%) [2] [%],EC50 [2] [nM],Emax [1] [%],Emax [2] [%]
C[C@H](O)CC[C@@H](C)[C@H]1CC[C@H]2[C@@H]3CC[C@H]4C[C@](O)(C(F)(F)F)CC[C@]4(C)[C@H]3CC[C@]12C [Compound 6],–,–,–,–,137,163
C[C@H](CC[C@]1(O)CCOC1)[C@H]1CC[C@H]2[C@@H]3CC=C4C[C@](O)(C(F)(F)F)CC[C@]4(C)[C@H]3CC[C@]12C [Compound 3496],–,–,–,–,319,369
C[C@H](CC[C@]1(O)CC[C@H](C)CC1)[C@H]1CC[C@H]2[C@@H]3CC[C@H]4C[C@](O)(C(F)(F)F)CC[C@]4(C)[C@H]3CC[C@]12C [Compound 3877],–,–,–,–,42.4,71.1
CC[C@]1(O)CC[C@H]2C(=CC[C@@H]3[C@@H]2CC[C@]2(C)[C@@H]([C@H](C)CCC4(O)CCOC4)CC[C@@H]32)C1 (stereo partly shown) [Compound 8689],–,–,–,–,320,439
C[C@H](CCC[C@@H](C)O)[C@H]1CC[C@H]2[C@@H]3CC[C@H]4C[C@](O)(C(F)(F)F)CC[C@]4(C)[C@H]3CC[C@]12C [Compound 112],92.6,480,150.8,478,–,–
CC[C@]1(O)CC[C@@]2(C)[C@@H](CC[C@@H]3[C@@H]2CC[C@]2(C)[C@@H]([C@H](C)CC[C@@H](O)c4ccccn4)CC[C@@H]32)C1 [Compound 7030],–,> 10000,–,–,–,–
"CCC1(O)CCC2(C)C(=CCC3C2CCC2(C)C(C(C)CCC(O)c4ccccc4F)CCC32)C1 (single isomer, unassigned) [Compound 7281]",–,–,–,–,98.1,126
CC(C)[C@@H](O)CC[C@@H](C)[C@H]1CC[C@H]2[C@@H]3CC=C4C[C@](O)(C(F)(F)F)CC[C@]4(C)[C@H]3CC[C@]12C [Compound 1-A],–,–,–,–,275,250
C[C@H](CC[C@](C)(O)C(F)(F)F)[C@H]1CC[C@H]2[C@@H]3CC=C4C[C@@](C)(O)CC[C@@H]4[C@H]3CC[C@]12C [Compound 9062],66.5,34.5,52.2,179,–,–
CC(C)[C@@H](O)CC[C@@H](C)[C@H]1CC[C@H]2[C@@H]3CC[C@H]4C[C@@](C)(O)CC[C@@H]4[C@H]3CC[C@]12C [Compound 1A75],457.2,671,308.0,440,–,–
C[C@H](CCC(O)C(C)(C)C)[C@H]1CC[C@H]2[C@@H]3CC=C4C[C@](O)(C(F)(F)F)CC[C@]4(C)[C@H]3CC[C@]12C (stereo partly shown) [Compound 2500],–,–,–,–,303,300
C[C@H](CCC(O)(c1ccccc1)C(F)(F)F)[C@H]1CC[C@H]2[C@@H]3CC=C4C[C@@](C)(O)CC[C@]4(C)[C@H]3CC[C@]12C (stereo partly shown) [Compound 559],204.3,1570,373.2,1560,–,–
C[C@H](CC[C@](C)(O)C(F)(F)F)[C@H]1CC[C@H]2[C@@H]3CC=C4C[C@](O)(C(F)(F)F)CC[C@]4(C)[C@H]3CC[C@]12C [Compound 3035],–,–,–,–,323,611
C[C@H](CCC[C@H](O)C(C)(C)C)[C@H]1CC[C@H]2[C@@H]3CC[C@H]4C[C@](O)(C(F)(F)F)CC[C@]4(C)[C@H]3CC[C@]12C [Compound 12156],43.2,154,111.2,2460,–,–
C[C@H](CCC1(O)CCCCCC1)[C@H]1CC[C@H]2[C@@H]3CC[C@H]4C[C@](O)(C(F)(F)F)CC[C@]4(C)[C@H]3CC[C@]12C [Compound 3983],–,–,–,–,176,300
CC[C@]1(O)CC[C@H]2C(=CC[C@@H]3[C@@H]2CC[C@]2(C)[C@@H]([C@H](C)CC[C@@H](O)C(C)C)CC[C@@H]32)C1 [Compound 8463],–,–,–,–,291,324
CC[C@]1(O)CC[C@@]2(C)[C@@H](CC[C@@H]3[C@@H]2CC[C@]2(C)[C@@H]([C@H](C)CC[C@H](O)c4ccccn4)CC[C@@H]32)C1 [Compound 7032],–,> 10000,–,–,–,–
